The values that follow come from patent publication US9376499B2, “PAR-1 activation by metalloproteinase-1 (MMP-1)” (Tufts Medical Center, Inc., priority 2009, dated 2016).

Non-standard residues stand in square brackets, D forms with d. Residues, ends and D or L forms follow the SMILES beside them. *: point of attachment. 4Abz = Nc1ccc(C(=O)O)cc1; NHOH = ON*

In one test the test system is PAR1. Nature of the test: Release of PAR1 N-terminal cleavage peptide from gel-filtered platelets (dot blot, IIaR-A antibody). The class given is cell-based, human. An excerpt:
To further understand how collagen is able to activate significant amounts of endogenous MMP-1 collagenase activity on the surface of platelets, experiments were devised to determine if PAR-1 is cleaved in either an autocrine or paracrine manner following exposure to collagen. Using a monoclonal antibody raised against the amino-terminal thrombin-cleavage peptide region of PAR1, residues 32-46 (Loew et al., 2000), the relative abilities of thrombin, MMP-1 and collagen to cause cleavage of platelet PAR1 was assessed. Gel filtered platelets were treated for 10 min with thrombin (3 nM), MMP-1 (3 nM), collagen (5 μg/ml), in the presence or absence (PBS buffer) of 0.00013 U hirudin or 5 μM FN-439 at 37° C. Supernatants were concentrated 20-fold and applied to nitrocellulose membranes, then probed with the IIaR-A monoclonal antibody. The PAR1 N-terminal thrombin deavage peptide (A26-R41) and PAR1 flexible linker peptide (N-acetyl-T67-L84 -C) (Kuliopulos et al., 1999) served as positive and negative controls (100 ng), respectively.
These platelets were then stimulated with collagen (5 μg/ml) for 10 min. at 37° C. Supernatants were concentrated 20-fold and applied to nitrocellulose membranes, then probed with the IIaR-A monoclonal antibody. […] FN-439, or an MMP1-blocking antibody (20 μg/ml) but not by thrombin inhibitor, hirudin (see FIG. 1E, FIG. 1G).

For test [1], the target named is T1, MMP-1 (Cavia porcellus, UniProt H0V812).
T1 construct: endogenous in cells; host or cells: platelets of Hartley guinea pigs
As to the kind of experiment: Collagenase activity released from collagen-treated guinea pig platelets. Format: biochemical. Conditions: 20 μg/ml collagen; 3 μM FN-439 or 20 μg/ml Ab. The procedure: Animal experiments were performed in accordance with the National Institutes of Health guidelines and approved by the Tufts Medical Center Institutional Animal Care and Use Committee. 2-4 week old Hartley guinea pigs (170-260 g) were anesthetized by an i.p. injection of xylazine (10 mg/kg) plus ketamine (50 mg/kg) and then catheterized via the left jugular vein and injected (200 μL) with either vehicle (20% DMSO/80% water), P1pal-7 or FN-439. For determination of collagen-dependent systemic platelet activation, 10 min after administration of inhibitors, 200 μg collagen in 200 μL of PBS was delivered via the jugular vein. Ten min after collagen injection, blood was collected into sodium citrate (1% v/v final) from the contralateral jugular vein and platelet counts were measured with a Hemavet850. The enzymatic activity of active MMP-1 in supernatants and platelet lysates was determined using DQ collagen I as fluorogenic substrate in the presence or absence of 3 μM FN-439, or 20 μg/ml of control IgG or a MMP-1 blocking Ab (preincubated for 2 h at 37° C.), as indicated.
Dashed grey line: secondary antibody alone; Solid lines: FACS profiles of platelets treated with the indicated concentrations of collagen for 15 min at 37° C. and then stained with primary MMP-1 (AB806) plus secondary antibodies.

Test [2] concerns the target T2, MMP-1 (Homo sapiens, UniProt P03956).
T2 sequence (P03956 100-469): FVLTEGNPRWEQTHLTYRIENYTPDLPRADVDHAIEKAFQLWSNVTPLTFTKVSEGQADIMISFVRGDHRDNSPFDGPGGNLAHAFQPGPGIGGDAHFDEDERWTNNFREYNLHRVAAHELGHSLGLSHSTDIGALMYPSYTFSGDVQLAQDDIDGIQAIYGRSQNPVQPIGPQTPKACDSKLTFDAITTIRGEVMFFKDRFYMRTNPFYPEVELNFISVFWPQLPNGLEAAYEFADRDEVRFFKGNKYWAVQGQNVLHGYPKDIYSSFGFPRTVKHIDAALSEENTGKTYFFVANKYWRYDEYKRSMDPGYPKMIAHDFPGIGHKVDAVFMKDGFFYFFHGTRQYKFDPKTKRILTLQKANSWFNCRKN
Nature of the test: Collagenase (active MMP-1) activity of collagen-stimulated human platelets, DQ collagen I fluorogenic substrate. As to conditions: 3 μM FN-439 or 20 μg/ml blocking Ab; platelets treated with 20 μg/ml collagen. Further details: endogenous in cells; host or cells: human platelets from healthy donors, stimulated with collagen, ADP or U-46619. Format: biochemical. Here is the method:
The enzymatic activity of active MMP-1 in supernatants and platelet lysates was then determined. Human or guinea pig platelets from PRP were concentrated four-fold by centrifugation at 700 g for 25 min at room temperature, and then resuspended in 0.25 volume of PIPES containing 1 mM EDTA (final platelet count was 10^9/mL). Platelets were treated with PBS (buffer), 20 μM ADP, 20 μM U-46619, or 20 μg/ml collagen in the presence of 2.5 mM CaCl2. The platelets were incubated for 15 min at 37° C. with occasional gentle mixing. Platelets were collected by centrifugation at 10,000 g for 5 min at 4° C. and resuspended in lysis buffer (50 mM Tris HCl, 100 mM NaCl, 1 mM NaF, 5 mM EDTA, 0.1% (v/v) Triton X-100, 100 μM PMSF, pH 7.4) and then sheared with a 27 gauge needle.
The enzymatic activity of active MMP-1 in supernatants and platelet lysates was measured using DQ collagen I (Molecular Probes) as fluorogenic substrate and reporter of collagenase activity substrate (Boire et al., 2005) in the presence or absence of 3 μM FN-439, or 20 μg/ml each of control IgG, MMP-1 blocking Ab, MMP-8 blocking Ab or MMP-13 blocking Ab (preincubated for 2 h at 37° C.), as indicated with APMA-activated MMP-1 serving as control (FIG. 1A, striped bars). […]

T1 sequence (H0V812 1-472): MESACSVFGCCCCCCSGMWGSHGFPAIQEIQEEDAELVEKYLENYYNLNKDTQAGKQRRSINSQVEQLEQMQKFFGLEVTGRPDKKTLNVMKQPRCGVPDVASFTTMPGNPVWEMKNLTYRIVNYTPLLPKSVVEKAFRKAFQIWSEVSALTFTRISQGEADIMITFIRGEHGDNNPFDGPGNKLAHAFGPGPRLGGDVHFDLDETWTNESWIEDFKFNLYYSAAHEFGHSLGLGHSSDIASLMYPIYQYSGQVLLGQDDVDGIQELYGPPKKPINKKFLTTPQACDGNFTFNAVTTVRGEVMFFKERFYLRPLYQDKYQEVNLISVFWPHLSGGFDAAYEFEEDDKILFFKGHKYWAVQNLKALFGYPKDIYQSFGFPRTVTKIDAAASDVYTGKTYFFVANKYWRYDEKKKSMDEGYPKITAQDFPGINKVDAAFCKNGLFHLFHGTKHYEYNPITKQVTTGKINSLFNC

As to `CC(C)C[C@@H](NC(=O)[C@@H]1CCCN1C(=O)CNC(=O)c1ccc(N)cc1)C(=O)N[C@H](C)C(=O)NO` [FN-439] (H-[4Abz]GP[dL][dA]-{NHOH}), the “block of MMP-1-induced release of N-terminal cleavage peptide of PAR1” value in the test with PAR1 (3 nM MMP-1, 5 μM FN-439) is reported as “blocked”. In addition, in the test with PAR1 (5 μg/ml collagen, 10 min, 37° C., Ab 20 μg/ml, ARC 0.5 μM, ASA 1 mM), the “block of collagen-induced release of PAR1 N-terminal peptide” value is recorded as “specifically blocked”. Besides, the “block of collagenase activity released by collagen from guinea pig platelets” value at MMP-1 [1] is “completely blocked”. Further, the “inhibition of platelet collagenase activity released by collagen (cleavage of fluorogenic collagen substrate)” value at MMP-1 [2] is given as “completely blocked”.
